pIC50: −log10 of the molar value. Positions of bridges follow the written chain, without caps; N, C: chain ends. Non-standard residues stand in square brackets, D forms with d. Residues, ends and D or L forms follow the SMILES beside them. ξ: configuration not given here. *: point of attachment. Phe(4-COOH) = N[C@@H](Cc1ccc(C(=O)O)cc1)C(=O)O; Bip = N[C@@H](Cc1ccc(-c2ccccc2)cc1)C(=O)O; NMeF = CN[C@@H](Cc1ccccc1)C(=O)O; 3Pal = N[C@@H](Cc1cccnc1)C(=O)O; Cha = N[C@@H](CC1CCCCC1)C(=O)O; Carboxymethyl = O=C(O)C*; NMeA = CN[C@@H](C)C(=O)O; Orn = NCCC[C@H](N)C(=O)O; Dab = NCC[C@H](N)C(=O)O; ξV = CC(C)C(N)C(=O)O; Sar = CNCC(=O)O
biological target: T1, human PD-1 (Jurkat-PD-1 cells) / PE-labeled human PD-L1-Ig (Homo sapiens, UniProt Q15116); test: Jurkat-PD-1 Cell Binding High-Content Screening Assay (CBA); Jurkat hPD1-PDL1 assay; conditions: Jurkat cell line over-expressing human PD-1; PE-labeled PD-L1-Ig 20 nM final; compound incubated 2 hours at 37° C.; read-out: Jurkat HPD1-PDL1 IC50
T1 construct: expressed in transfected cells; host or cells: Jurkat cell line over-expressing human PD-1
In short: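 Jurkat cells over-expressing human PD-1, seeded in DMEM with 10% fetal calf serum, were preincubated with compound for 2 hours at 37° C. PE-labeled human PD-L1-Ig was then added at 20 nM final, and cell-bound fluorescence was read by high-content imaging.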

T1 sequence (Q15116 25-288): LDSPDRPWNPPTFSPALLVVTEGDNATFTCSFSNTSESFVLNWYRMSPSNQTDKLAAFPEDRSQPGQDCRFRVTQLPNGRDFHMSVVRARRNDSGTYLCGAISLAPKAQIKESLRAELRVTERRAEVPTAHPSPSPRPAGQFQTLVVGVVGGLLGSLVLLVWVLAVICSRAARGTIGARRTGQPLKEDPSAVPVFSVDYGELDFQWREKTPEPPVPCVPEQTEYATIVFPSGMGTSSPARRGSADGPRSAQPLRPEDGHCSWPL

Question: How did the pIC50 turn out when CC(C)C[C@@H]1NC(=O)[C@H](CCN)NC(=O)[C@H](Cc2ccccc2)N(C)C(=O)[C@H](C)N(C)C(=O)[C@H](CCCNC(=N)N)NC(=O)[C@H](Cc2ccc(-c3ccccc3)cc2)NC(=O)[C@H](C(C)C)NC(=O)[C@H](Cc2c[nH]c3ccccc23)NC(=O)[C@H](CC(=O)O)NC(=O)[C@H](Cc2ccc(O)cc2)NC(=O)[C@H](CC(N)=O)NC(=O)CSC[C@@H](C(=O)N[C@@H](C)C(N)=O)NC(=O)[C@H](CO)NC(=O)[C@H](C(C)C)NC1=O [Example 1303] ({CH2CO}-NYDWV[Bip]R[NMeA][NMeF][Dab]LVSCA-NH2; thioether N-14) was run?
Answer: The pIC50 was 7.15.

Question: CC(C)C[C@@H]1NC(=O)[C@H](CCCNC(=N)N)NC(=O)[C@H](Cc2ccccc2)N(C)C(=O)[C@H](C)N(C)C(=O)[C@H](CCCNC(=N)N)NC(=O)[C@H](Cc2ccc(-c3ccccc3)cc2)NC(=O)[C@H](C(C)C)NC(=O)[C@H](Cc2c[nH]c3ccccc23)NC(=O)[C@H](CC(=O)O)NC(=O)[C@H](Cc2ccc(O)cc2)NC(=O)[C@H](CC(N)=O)NC(=O)CSC[C@@H](C(=O)N[C@@H](C)C(N)=O)NC(=O)[C@H](CO)NC(=O)[C@H](C(C)C)NC1=O [Example 1301] ({CH2CO}-NYDWV[Bip]R[NMeA][NMeF]RLVSCA-NH2; thioether N-14) was tested. Which pIC50 did it give?
Answer: Its pIC50 is 6.82.

Question: CC(C)C1NC(=O)[C@H](Cc2c[nH]c3ccccc23)NC(=O)[C@H](CC(=O)O)NC(=O)[C@H](Cc2ccc(C(=O)O)cc2)NC(=O)[C@H](Cc2ccc(OCC(=O)O)cc2)NC(=O)CSC[C@@H](C(=O)N[C@@H](C)C(N)=O)NC(=O)[C@H]([C@@H](C)O)NC(=O)[C@H](C(C)C)NC(=O)[C@H](CC2CCCCC2)NC(=O)[C@H](CCN)NC(=O)[C@H](Cc2ccccc2)N(C)C(=O)[C@H](CCCN)NC(=O)[C@H](CCC(=O)O)NC(=O)[C@H](Cc2ccc(-c3ccccc3)cc2)NC1=O (stereo partly drawn) [Example 1443] ({CH2CO}-Y(Carboxymethyl)[Phe(4-COOH)]DW[ξV][Bip]E[Orn][NMeF][Dab][Cha]VTCA-NH2; thioether N-14) was tested. Which pIC50 did it give?
Answer: Its pIC50 is 7.10.

Question: With CC(C)C[C@@H]1NC(=O)[C@H](Cc2c[nH]c3ccccc23)NC(=O)[C@H](CC(=O)O)NC(=O)[C@H](Cc2ccc(O)cc2)NC(=O)[C@H](Cc2ccccc2)NC(=O)CSC[C@@H](C(=O)NCC(N)=O)NC(=O)[C@H]([C@@H](C)O)NC(=O)[C@H](C(C)C)NC(=O)[C@H](CC(C)C)NC(=O)[C@H](CC(N)=O)NC(=O)[C@H]2CCCN2C(=O)[C@H](CCN)NC(=O)[C@H](C(C)C)NC(=O)[C@H](Cc2ccc(-c3ccccc3)cc2)NC1=O [Example 1411] ({CH2CO}-FYDWL[Bip]V[Dab][dP]NLVTCG-NH2; thioether N-14) as the compound, how does the pIC50 read?
Answer: Its pIC50 is 6.36.

Question: CC(C)C[C@@H]1NC(=O)[C@H](CC(N)=O)NC(=O)CN(C)C(=O)[C@H](C)N(C)C(=O)[C@H](C(C)C)NC(=O)[C@H](Cc2ccc(-c3ccccc3)cc2)NC(=O)[C@H](CC(C)C)NC(=O)[C@H](Cc2c[nH]c3ccccc23)NC(=O)[C@H](CC(=O)O)NC(=O)[C@H](Cc2ccc(O)cc2)NC(=O)[C@H](Cc2ccccc2)NC(=O)CSC[C@@H](C(=O)NCC(N)=O)NC(=O)[C@H](CO)NC(=O)[C@H](CCCCN)NC1=O [Example 1104] ({CH2CO}-FYDWL[Bip]V[NMeA][Sar]NLKSCG-NH2; thioether N-14) was tested. Which pIC50 did it give?
Answer: The pIC50 was 6.49.

Question: How did the pIC50 turn out when CC(C)C[C@@H]1NC(=O)[C@H](CCCNC(=N)N)NC(=O)[C@H](Cc2ccccc2)N(C)C(=O)[C@H](C)N(C)C(=O)[C@H](CCCNC(=N)N)NC(=O)[C@H](Cc2ccc(-c3ccccc3)cc2)NC(=O)[C@H](C(C)C)NC(=O)[C@H](Cc2c[nH]c3ccccc23)NC(=O)[C@H](CC(=O)O)NC(=O)[C@H](Cc2ccc(O)cc2)NC(=O)[C@H](Cc2cccnc2)NC(=O)CSC[C@@H](C(=O)N[C@@H](C)C(N)=O)NC(=O)[C@H]([C@@H](C)O)NC(=O)[C@H](C(C)C)NC1=O [Example 1348] ({CH2CO}-[3Pal]YDWV[Bip]R[NMeA][NMeF]RLVTCA-NH2; thioether N-14) was run?
Answer: The pIC50 was 6.66.
